The record followed here is EP0017484A1, “2-Imidazoline derivatives, process for the preparation thereof and the pharmaceutical composition of the same” (FUJISAWA PHARMACEUTICAL CO., LTD., priority 1979, dated 1980).

A word on the ED50: it is the midpoint of the dose-response relation. Read a high ED50 as weaker potency.

One assay has as its system male ddy strain mice. As to the kind of experiment: Analgesic activity: acetic acid writhing syndrome. Format: in vivo. To be noted: Mus musculus, po; orally 60 minutes before i.p. 0.6% acetic acid; writhing observed from 3 to 13 minutes; Litchfield-Wilcoxon method. As for the experimental part: Ten male ddy strain mice were used for each dose. To estimate the frequency of writhing syndrome, the animals were observed from 3 to 13 minutes after an intraperitoneal injection of 0.2 ml/10 g of 0.6% acetic acid. The drugs were given orally 60 minutes before acetic acid. The frequency of writhing syndrome in the treated animals was compared with that in the non-treated control animals.
The ED50 value was calculated according to Litchfield-Wilcoxon method.
(In writhing tests, fewer writhes than in controls are read as antinociception.)

The subject of a further assay is Sprague-Dawley rats. As to the kind of experiment: Anti-inflammatory activity: carrageenin hind paw edema. Format: in vivo. To be noted: 100 mg/kg orally 60 minutes before carrageenin (1.5%, 0.1 ml); paw weight after 3 hours versus control animals. On the procedure:
Ten Sprague-Dawley rats were used per group. The right hind paw of the rat was injected subcutaneously under the plantar surface with 0.1 ml of carrageenin (1.5%). After 3 hours, the animals were sacrificed. The normal and edematous hind paws were cut off at the tibio-dorsal joint and weighed. The difference in the weight of edematous paw and that of normal paw was a measure of the edema. The test compound (100 mg/kg) was administered orally 60 minutes before the irritating agent. Paw swelling of treated animals was compared with that of control animals.

Structures are written as SMILES.

In the assay on male ddy strain mice, `COc1cc(Oc2ccccc2NC2=NCCN2)cc(OC)c1OC` [2-[2-(3,4,5-Trimethoxyphenoxy)phenyl]amino-2-imidazoline] came in with an ED50 of 50.1 mg/kg.

In the case of `Cc1ccc(NC2=NCCN2)c(Oc2ccccc2)c1` [2-(2-Phenoxy-4-methylphenyl)amino-2-imidazoline], the Inhibitory effect with Sprague-Dawley rats was found to be 48.4%.
